Where two headings read alike, the source gives them in different places.
What was measured:
[1] = Quantification of propolis polyphenols in human urines after ingesting the composition; assay type: in vivo
Procedure: Two healthy volunteers of more than 18 years of age, with efficient contraception and having followed a normal diet, followed a regimen comprising the ingestion of gelatin capsules according to the composition of Example 3.
Two regimens were followed: • taking 6 gelatin capsules, • taking 8 gelatin capsules.
The taking of gelatin capsules was carried out at 8.00 am and the urines were collected by micturition in a sterile flask before ingestion, 1-6 hours after ingestion, 12 hours after ingestion and 24 hours after ingestion.
The collected urines are hydrolyzed by enzymatic hydrolysis (glucuronidase and sulfatase), and the polyphenols are then extracted and purified on Sep-Pack.
The polyphenols of propolis such as pinocembrin and galangin are then characterized and assayed.

[2] = test system: E. coli strain sensitive to ATBs (S), NECS30090; assay: MIC, dilution in liquid medium (CA-SFM), second S strain; assay type: cell-based, Escherichia coli; details: second S strain row; added composition at sub-inhibitory concentration (120 or 250 mg/L); 18 h, 37° C.
From the text: (§1) Six strains of Escherichia coli of different origins (cystitises, acute pyelonephritises, urinary chronic carriage), of different sensitivities to the main antibiotics customarily used in urinary infections and with different virulences, were selected from the strain library of the laboratory of the INSERM Espri 26 team: • 2 strains sensitive to ATBs: NECS892841 and NECS30090 • 2 strains resistant to quinolones: NECS858785 and NECS864598 • 2 strains secreting BLSE: NEC892420 and NEC118564
(§2) Three compositions were evaluated: • a composition comprising propolis powder on maltose dextrin • a composition comprising propolis powder on maltose dextrin and PACs of type A • a composition comprising maltose dextrin
(§3) Three antibiotics were studied: • ofloxacin • ceftriaxone • cefixime
(§4) The whole of the tubes were put into an oven at 37° C. overnight without stirring.

[3] = test system: E. coli strain resistant to quinolones (OFX R), NECS864598; assay: MIC, dilution in liquid medium (CA-SFM), second OFX R strain; assay type: cell-based, Escherichia coli; details: added composition at sub-inhibitory concentration (120 or 250 mg/L), 18 h, 37° C.
From the text: as §1, §2, §3, §4

[4] = test system: E. coli strain sensitive to ATBs (S), NECS892841; assay: MIC, dilution in liquid medium (CA-SFM), first S strain; assay type: cell-based, Escherichia coli; details: added composition at sub-inhibitory concentration (120 or 250 mg/L), 18 h, 37° C.
From the text: as §1, §2, §3, §4

[5] = test system: E. coli strain secreting BLSE, NEC892420; assay: MIC, dilution in liquid medium (CA-SFM), first BLSE strain; assay type: cell-based, Escherichia coli; details: added composition at sub-inhibitory concentration (120 or 250 mg/L), 18 h, 37° C.
From the text: as §1, §2, §3, §4

[6] = test system: E. coli strain resistant to quinolones (OFX R), NECS858785; assay: MIC, dilution in liquid medium (CA-SFM), first OFX R strain; assay type: cell-based, Escherichia coli; details: added composition at sub-inhibitory concentration (120 or 250 mg/L), 18 h, 37° C.
From the text: as §1, §2, §3, §4

[7] = test system: E. coli strain secreting BLSE, NEC118564; assay: MIC, dilution in liquid medium (CA-SFM), second BLSE strain; assay type: cell-based, Escherichia coli; details: added composition at sub-inhibitory concentration (120 or 250 mg/L), 18 h, 37° C.
From the text: as §1, §2, §3, §4

amount in human urines ([1]; human, in vivo) | concentration at 12 h ([1]; human, in vivo, amount in human urines) | MIC of the antibiotic [2] | MIC of the antibiotic [3] | MIC of the antibiotic [4] | MIC of the antibiotic [5] | MIC of the antibiotic [6] | MIC of the antibiotic [7] | Compound | amount in human urines ([1]; 1-6 h after ingestion of 6 gelatin capsules of Example 3, urine hydrolyzed) | concentration at 12 h ([1]; human, in vivo, 12 h after ingestion of 6 gelatin capsules of Example 3, read-out: amount in human urines) | concentration at 24 h ([1]; human, in vivo, 24 h after ingestion of 6 gelatin capsules of Example 3, read-out: amount in human urines) | concentration at 24 h ([1]; human, in vivo, 24 h after ingestion of 8 gelatin capsules of Example 3, read-out: amount in human urines)
3.344 mg/L | 1140 ng/mL |  |  |  |  |  |  | O=C1C[C@@H](c2ccccc2)Oc2cc(O)cc(O)c21 [Pinocembrin, pinocembrin] |  |  |  | 
 |  | 0.5 µg/mL | 0.5 µg/mL | 1 µg/mL | >32 µg/mL | 0.25 µg/mL | 32 µg/mL | CO/N=C(\C(=O)N[C@@H]1C(=O)N2C(C(=O)O)=C(CSc3nc(=O)c(O)nn3C)CS[C@H]12)c1csc(N)n1 [Ceftriaxon, ceftriaxone] |  |  |  | 
 |  | 0.5 µg/mL | 1 µg/mL | 1 µg/mL | 16 µg/mL | 0.5 µg/mL | 8 µg/mL | C=CC1=C(C(=O)O)N2C(=O)[C@@H](NC(=O)/C(=N\OCC(=O)O)c3csc(N)n3)[C@H]2SC1 [Cefixime, cefixime] |  |  |  | 
 |  | 0.25 µg/mL | 32 µg/mL | 1 µg/mL | >32 µg/mL | 2 µg/mL | >32 µg/mL | CC1COc2c(N3CCN(C)CC3)c(F)cc3c(=O)c(C(=O)O)cn1c23 (stereo not drawn) [Ofloxacin, ofloxacin] |  |  |  | 
 |  |  |  |  |  |  |  | O=c1c(O)c(-c2ccccc2)oc2cc(O)cc(O)c12 [Galangin, galangin] | 0.555 mg/L | 291 ng/mL | 157 ng/mL | 311 ng/mL

— patent US9636365B2, “Antibacterial food composition” (NUTRIVERCELL, priority 2009, dated 2017)
